In US12495798B2, “Nicotinamide compound and herbicidal composition comprising compound” (KOREA RESEARCH INSTITUTE OF CHEMICAL TECHNOLOGY, priority 2019, dated 2025):

Experiments:
Type in all cases: in vivo
Parameters in all cases: key: 0 (no harm); 9 (complete withered)
wheat [1] = assay: Phytotoxicity test for upland field crops (foliar treatment test)
Outline: (§1)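 Spray-booth foliar treatment of greenhouse-grown crops at 19˜300 g a.i./ha. Visual crop injury was scored 0–9 against untreated plants at 7 and 14 days.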

cotton [2] = assay: as above
Outline: as §1

rice [3] = assay: as above
Outline: as §1

soybean [4] = assay: as above
Outline: as §1

corn [5] = assay: as above
Outline: as §1

wheat [6] = assay: Phytotoxicity test for field crops (soil treatment test)
Experimental: (§2) Experimental Example 4: Phytotoxicity Test for Field Crops (Soil Treatment Test)
(§3) Soil treatment was performed for sown crops and weeds in a square plastic pot having a surface area of 50 cm^2 filled with sterilized horticultural soil (pH 6.1, organic material 1.0%, clay 21%, silt 17%, sand 52%). As a fertilizer per pot, 0.5 g of horticultural mixed fertilizer (N:P:K=17:21:17) was treated by mixing with soil. Five kinds of crops such as rice, wheat, corn, soybean, and cotton were sown in each pot. One day after sowing, test compound solutions were made by diluting with the diluent (33% acetone, 0.1% Tween-20) so that the final treatment amount of the test compounds was 19˜300 g a.i./ha. The prepared test compound solutions were treated using a spray booth (SB6-016) at a treatment amount of 100 ml per 1 m^2 of treatment area. The treated crops were managed in greenhouse conditions (average temperature 30±5° C., light/dark=14/10 hours). External symptoms and phytotoxicity were visually investigated 10 and 20 days after treatment. In the evaluation of the phytotoxicity for the crop, the grade of 0 (no harm) to 9 (complete withered) was used. The results of Table 10 were obtained by evaluating phytotoxicity value to the untreated control.

cotton [7] = assay: as above
Experimental: as §2, §3

rice [8] = assay: as above
Experimental: as §2, §3

soybean [9] = assay: as above
Experimental: as §2, §3

corn [10] = assay: as above
Experimental: as §2, §3

Cn1nnnc1NC(=O)c1ccc(C(F)(F)F)nc1Sc1nnnn1C [Compound No. 1-40, N-(1-methyl-1H-tetrazol-5-yl)-2-((1-methyl-1H-tetrazol-5-yl)thio)-6-(trifluoromethyl)nicotinamide]
Foliar treatment phytotoxicity, Wheat (wheat [1]; 50 g ai/ha, Wheat (7 days after treatment)): 0 | Foliar treatment phytotoxicity, Wheat (wheat [1]; 50 g ai/ha, Wheat (14 days after treatment)): 0 | Foliar treatment phytotoxicity, Wheat (wheat [1]; 100 g ai/ha, Wheat (7 days after treatment)): 1 | Foliar treatment phytotoxicity, Wheat (wheat [1]; 100 g ai/ha, Wheat (14 days after treatment)): 0 | Foliar treatment phytotoxicity, Cotton (cotton [2]; 50 g ai/ha, Cotton (7 days after treatment)): 2 | Foliar treatment phytotoxicity, Cotton (cotton [2]; 50 g ai/ha, Cotton (14 days after treatment)): 3 | Foliar treatment phytotoxicity, Cotton (cotton [2]; 100 g ai/ha, Cotton (7 days after treatment)): 3 | Foliar treatment phytotoxicity, Cotton (cotton [2]; 100 g ai/ha, Cotton (14 days after treatment)): 4 | Foliar treatment phytotoxicity, Rice (rice [3]; 50 g ai/ha, Rice (7 days after treatment)): 0 | Foliar treatment phytotoxicity, Rice (rice [3]; 50 g ai/ha, Rice (14 days after treatment)): 0 | Foliar treatment phytotoxicity, Rice (rice [3]; 100 g ai/ha, Rice (7 days after treatment)): 0 | Foliar treatment phytotoxicity, Rice (rice [3]; 100 g ai/ha, Rice (14 days after treatment)): 1 | Foliar treatment phytotoxicity, Soybean (soybean [4]; 50 g ai/ha, Soybean (7 days after treatment)): 6 | Foliar treatment phytotoxicity, Soybean (soybean [4]; 50 g ai/ha, Soybean (14 days after treatment)): 5 | Foliar treatment phytotoxicity, Soybean (soybean [4]; 100 g ai/ha, Soybean (7 days after treatment)): 6 | Foliar treatment phytotoxicity, Soybean (soybean [4]; 100 g ai/ha, Soybean (14 days after treatment)): 5 | Foliar treatment phytotoxicity, Corn (corn [5]; 50 g ai/ha, Corn (7 days after treatment)): 0 | Foliar treatment phytotoxicity, Corn (corn [5]; 50 g ai/ha, Corn (14 days after treatment)): 0 | Foliar treatment phytotoxicity, Corn (corn [5]; 100 g ai/ha, Corn (7 days after treatment)): 0 | Foliar treatment phytotoxicity, Corn (corn [5]; 100 g ai/ha, Corn (14 days after treatment)): 0 | Soil treatment phytotoxicity, Wheat (wheat [6]; 50 g ai/ha, Wheat (10 days after treatment)): 0 | Soil treatment phytotoxicity, Wheat (wheat [6]; 50 g ai/ha, Wheat (20 days after treatment)): 0 | Soil treatment phytotoxicity, Wheat (wheat [6]; 100 g ai/ha, Wheat (10 days after treatment)): 0 | Soil treatment phytotoxicity, Wheat (wheat [6]; 100 g ai/ha, Wheat (20 days after treatment)): 0 | Soil treatment phytotoxicity, Cotton (cotton [7]; 50 g ai/ha, Cotton (10 days after treatment)): 1 | Soil treatment phytotoxicity, Cotton (cotton [7]; 50 g ai/ha, Cotton (20 days after treatment)): 0 | Soil treatment phytotoxicity, Cotton (cotton [7]; 100 g ai/ha, Cotton (10 days after treatment)): 3 | Soil treatment phytotoxicity, Cotton (cotton [7]; 100 g ai/ha, Cotton (20 days after treatment)): 0 | Soil treatment phytotoxicity, Rice (rice [8]; 50 g ai/ha, Rice (10 days after treatment)): 0 | Soil treatment phytotoxicity, Rice (rice [8]; 50 g ai/ha, Rice (20 days after treatment)): 0 | Soil treatment phytotoxicity, Rice (rice [8]; 100 g ai/ha, Rice (10 days after treatment)): 0 | Soil treatment phytotoxicity, Rice (rice [8]; 100 g ai/ha, Rice (20 days after treatment)): 0 | Soil treatment phytotoxicity, Soybean (soybean [9]; 50 g ai/ha, Soybean (10 days after treatment)): 0 | Soil treatment phytotoxicity, Soybean (soybean [9]; 50 g ai/ha, Soybean (20 days after treatment)): 0 | Soil treatment phytotoxicity, Soybean (soybean [9]; 100 g ai/ha, Soybean (10 days after treatment)): 0 | Soil treatment phytotoxicity, Soybean (soybean [9]; 100 g ai/ha, Soybean (20 days after treatment)): 0 | Soil treatment phytotoxicity, Corn (corn [10]; 50 g ai/ha, Corn (10 days after treatment)): 0 | Soil treatment phytotoxicity, Corn (corn [10]; 50 g ai/ha, Corn (20 days after treatment)): 0 | Soil treatment phytotoxicity, Corn (corn [10]; 100 g ai/ha, Corn (10 days after treatment)): 0 | Soil treatment phytotoxicity, Corn (corn [10]; 100 g ai/ha, Corn (20 days after treatment)): 0
